Results from patent US20150259429A1, “CLUSTER OF DIFFERENTIATION 36 (CD36) AS A THERAPEUTIC TARGET FOR HIV INFECTION” (INSTITUT CURIE, priority 2012, published 2015).
Where a SMILES comes first, the peptide text is derived from it. [ ]: non-standard residue; d: D form. dTrp(2-Me) = Cc1[nH]c2ccccc2c1C[C@@H](N)C(=O)O

Assays:
[1] = target: CD36 (human), on primary macrophages or HeLa-CD36 cells (human) (UniProt P16671); assay: cell-based or functional assay
CD36 [2] = conditions: cited from earlier work
[3] = test system: HIV-1-infected macrophages; assay: CD36 mAb blocking assay: p24 in supernatant and cell lysate of HIV-1-infected macrophages (ELISA); conditions: overnight exposure, comparison with CD36 ligands (FIG. 15E)
[4] = test system: HIV-1-infected primary macrophages; assay: p24 Gag release by HIV-1-infected macrophages after siRNA transfection (ELISA); conditions: Tsg101 knock down (positive control) compared with CD36 silencing
CD36 [5] = conditions: binding site competition; cited from earlier work

## CD36-specific mAb clone CLB-IVC7 (Immunotools) (antibody)
[1]
  p24 release in the culture supernatant of HIV-1-infected macrophages (ELISA), titration of the mAb: 32 ng/mL

## Cc1c(C)c2c(c(C)c1O)CC[C@@](C)(CCC[C@H](C)CCC[C@H](C)CCCC(C)C)O2 [α-tocopherol]
CD36 [2]
  uptake of oxLDLs into macrophages: reduce
CD36 [2]; macrophages
  expression of CD36: reduce

## Trombospondin-1: endogenous ligand of CD36
[3]
  release of p24: none of the two ligands reduced

## CAGUUUAUCAUUCAAGUGUAA (listed as RNA, chemistry not given here) [Tsg101]
[4]
  extent of the inhibition of p24 release: similar

## type-I Collagen: endogenous ligand of CD36, purchased from Sigma
[3]
  release of p24: none of the two ligands reduced

## Cc1[nH]c2ccccc2c1C[C@@H](NC(=O)[C@@H](N)Cc1cnc[nH]1)C(=O)N[C@@H](C)C(=O)N[C@@H](Cc1c[nH]c2ccccc12)C(=O)N[C@H](Cc1ccccc1)C(=O)N[C@@H](CCCCN)C(N)=O [Hexarelin, hexarelin] (H-H[dTrp(2-Me)]AW[dF]K-NH2)
CD36 [5]
  CD36-mediated uptake of oxLDLs: blocks
